Measurements: the supplement of paper PMC4862054
Values joined by “and” are separate entries in the source; they are usually repeats but may differ in a detail not shown here. Identical values can stand only once.

Legend:
Assay in all cases: normalised viability (% of control), CellTiter-Blue; higher = more viable cells (about 100 = DMSO control)
Conditions in all cases: incubation time: 72 h
SK-BR-3 = system: SK-BR-3
Outline: (§1)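 384-well plates were pre-loaded with compound in 5 µl medium before 20 µl of breast cancer cell suspension was seeded. Following 72 h incubation, 2.5 µl CellTiter-Blue reagent was added for 2 h at 37 °C. Fluorescence was read at 560/590 nm and plates were normalised to vehicle (100) and a positive kill control (0), checked by Z'-factor. Normalised viability is reported at a single listed concentration of the series.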

CAL-120 = system: CAL-120
Outline: as §1

MDA-MB-468 = system: MDA-MB-468
Outline: as §1

HCC1599 = system: HCC1599
Outline: as §1

CAL-85-1 = system: CAL-85-1
Outline: as §1

BT-474 = system: BT-474
Outline: as §1

MDA-MB-436 = system: MDA-MB-436
Outline: as §1

NC(=O)c1cccc2cn(-c3ccc([C@@H]4CCCNC4)cc3)nc12 [MK-4827]
normalised viability [%]
Conditions	BT-474	CAL-85-1	CAL-120	HCC1599	MDA-MB-436	MDA-MB-468	SK-BR-3
3 nM	–	95.8	–	–	–	–	–
10 nM	119	–	81	93.4	84.2	101	95.9
30 nM	–	92	–	–	–	–	–
100 nM	–	93.1	–	–	–	–	–
1000 nM	100	–	76.9	116	72.4	89	95.2
10000 nM	92.7	–	71.1	93.3	65.3	50.4	74.9

N[C@@H](Cc1ccc(N(CCCl)CCCl)cc1)C(=O)O [Melphalan]
normalised viability [%]
Conditions	BT-474	CAL-85-1	CAL-120	HCC1599	MDA-MB-436	MDA-MB-468	SK-BR-3
0.297 nM	–	94.8	–	–	–	–	–
0.99 nM	99.9	–	74.3	102	88.2	95.7	94.6
2.97 nM	–	91.2	–	–	–	–	–
9.9 nM	–	96.6	–	–	–	–	–
99 nM	98	–	71.6	82.1	90	99.7	98.8
990 nM	99.1	–	64.3	90.7	75.4	63	50.6

Cc1c(C(=O)Nc2ccc(N3C[C@@H](C)O[C@@H](C)C3)nc2)cccc1-c1ccc(OC(F)(F)F)cc1 [NVP-LDE225]
normalised viability [%]
Conditions	BT-474	CAL-85-1	CAL-120	HCC1599	MDA-MB-436	MDA-MB-468	SK-BR-3
3 nM	–	100	–	–	–	–	–
10 nM	96.5	–	99.9	105	83	109	104
30 nM	–	86	–	–	–	–	–
100 nM	–	104	–	–	–	–	–
1000 nM	101	–	92.7	90.5	29.2	109	102
10000 nM	63.5	–	97	102	67.3	91.9	111

O=C(c1cc(Cc2n[nH]c(=O)c3ccccc23)ccc1F)N1CCN(C(=O)C2CC2)CC1 [Olaparib]
normalised viability [%]
Conditions	BT-474	CAL-85-1	CAL-120	HCC1599	MDA-MB-436	MDA-MB-468	SK-BR-3
3 nM	–	87.7	–	–	–	–	–
10 nM	109	–	78.7	93.8	113	102	103
30 nM	–	74	–	–	–	–	–
100 nM	–	90.5	–	–	–	–	–
1000 nM	104	–	80.5	114	105	89.8	93.5
10000 nM	98.2	–	68.6	94.2	95.6	65.8	82.1

CO[C@H](C(=O)[C@@H](O)[C@@H](C)O)[C@@H]1Cc2cc3cc(O[C@H]4C[C@@H](O[C@@H]5C[C@@H](O)[C@H](O)[C@@H](C)O5)[C@H](O)[C@@H](C)O4)c(C)c(O)c3c(O)c2C(=O)[C@H]1O[C@H]1C[C@@H](O[C@@H]2C[C@@H](O)[C@@H](O[C@@H]3C[C@](C)(O)[C@H](O)[C@@H](C)O3)[C@@H](C)O2)[C@H](O)[C@@H](C)O1 [Plicamycin]
normalised viability
Conditions	BT-474	CAL-85-1	CAL-120	HCC1599	MDA-MB-436	MDA-MB-468	SK-BR-3
3 nM	–	87.3% and 88.3%	–	–	–	–	–
10 nM	122% and 103%	–	89.5% and 75.6%	89.6% and 108%	95.2% and 75.5%	91.4% and 92.1%	111% and 88.8%
30 nM	–	89.2% and 83.9%	–	–	–	–	–
100 nM	–	51.5% and 39.5%	–	–	–	–	–
1000 nM	36% and 23.9%	–	13.4% and 10.2%	22.3% and 22.2%	25.8% and 19.9%	3.16% and 3.32%	6.61% and 5.62%
10000 nM	22.1% and 26.4%	–	11.9% and 9.12%	15.2% and 19.4%	21.7% and 13.9%	2.7% and 3.47%	4.44% and 5.25%

C[C@]12C=CC(=O)C=C1CC[C@@H]1[C@@H]2C(=O)C[C@@]2(C)[C@H]1CC[C@]2(O)C(=O)CO [Prednisone]
normalised viability [%]
Conditions	BT-474	CAL-85-1	CAL-120	HCC1599	MDA-MB-436	MDA-MB-468	SK-BR-3
3 nM	–	95.8	–	–	–	–	–
10 nM	133	–	79.9	102	91.3	98.6	101
30 nM	–	102	–	–	–	–	–
100 nM	–	90.9	–	–	–	–	–
1000 nM	109	–	79.3	103	70.5	104	111
10000 nM	111	–	96.3	94	109	98	113

CO[C@H]1C[C@@H]2CC[C@@H](C)[C@@](O)(O2)C(=O)C(=O)N2CCCC[C@H]2C(=O)O[C@H]([C@H](C)C[C@@H]2CC[C@@H](O)[C@H](OC)C2)CC(=O)[C@H](C)/C=C(\C)[C@@H](O)[C@@H](OC)C(=O)[C@H](C)C[C@H](C)/C=C/C=C/C=C/1C [Sirolimus]
normalised viability [%]
Conditions	BT-474	CAL-85-1	CAL-120	HCC1599	MDA-MB-436	MDA-MB-468	SK-BR-3
0.3 nM	–	86.1	–	–	–	–	–
1 nM	74.7	–	79.6	88.4	93.3	70.2	84.8
3 nM	–	58.2	–	–	–	–	–
10 nM	–	66	–	–	–	–	–
100 nM	75.1	–	53.4	56.7	84.5	65.3	48.4
1000 nM	67.5	–	47.3	75.3	87.2	69.5	43

CN1CCN(c2nc(C3=C(c4c[nH]c5ccccc45)C(=O)NC3=O)c3ccccc3n2)CC1 [Sotrastaurin]
normalised viability [%]
Conditions	BT-474	CAL-85-1	CAL-120	HCC1599	MDA-MB-436	MDA-MB-468	SK-BR-3
3 nM	–	106	–	–	–	–	–
10 nM	112	–	110	121	112	95.6	95.6
30 nM	–	111	–	–	–	–	–
100 nM	–	130	–	–	–	–	–
1000 nM	109	–	118	108	59.1	93	103
10000 nM	94.6	–	110	101	107	89.8	73.1

CC/C(=C(\c1ccccc1)c1ccc(OCCN(C)C)cc1)c1ccccc1 [Tamoxifen]
normalised viability [%]
Conditions	BT-474	CAL-85-1	CAL-120	HCC1599	MDA-MB-436	MDA-MB-468	SK-BR-3
3 nM	–	100	–	–	–	–	–
10 nM	111	–	110	102	101	100	101
30 nM	–	92	–	–	–	–	–
100 nM	–	116	–	–	–	–	–
1000 nM	117	–	100	107	94.7	106	107
10000 nM	77.5	–	82.1	90	40.1	9.44	80.9

COc1cc2c(N3CCN(C(=O)Nc4ccc(OC(C)C)cc4)CC3)ncnc2cc1OCCCN1CCCCC1 [Tandutinib]
normalised viability [%]
Conditions	BT-474	CAL-85-1	CAL-120	HCC1599	MDA-MB-436	MDA-MB-468	SK-BR-3
0.3 nM	–	102	–	–	–	–	–
1 nM	138	–	110	99.1	95	105	111
3 nM	–	91.2	–	–	–	–	–
10 nM	–	103	–	–	–	–	–
100 nM	116	–	106	121	81.9	118	111
1000 nM	125	–	114	103	112	110	114

C[C@@H](C(=O)O)c1ccc(-c2ccccc2)c(F)c1 [Tarenflurbil]
normalised viability [%]
Conditions	BT-474	CAL-85-1	CAL-120	HCC1599	MDA-MB-436	MDA-MB-468	SK-BR-3
3 nM	–	87.2	–	–	–	–	–
10 nM	112	–	94	94.6	104	100	99.3
30 nM	–	88.4	–	–	–	–	–
100 nM	–	93	–	–	–	–	–
1000 nM	107	–	92.2	118	90.4	119	105
10000 nM	113	–	99.4	106	138	90	126
